From patent EP4793271A1, “NEUROPROTECTIVE AGENT” (National Center of Neurology and Psychiatry, priority 2023, dated 2025)

Key:
[1] = biological target: T1, nicotinamide phosphoribosyl transferase (NAMPT) (Homo sapiens, UniProt P43490); test: NAMPT activity measurement (NMN fluorescence detection); format: biochemical; conditions: NAMPT recombinant protein; 10 µM Nam
T1 construct: purchased Medical & Biological Laboratories Co., Ltd. (MBL)
Summary of the method: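 Recombinant NAMPT reacted with 10 µM Nam, 0.5 µM PRPP, 2 µM ATP in Tris pH 7.4 buffer with MgCl2, DTT, BSA; product NMN quantified by fluorescence (ex 421/em 480 nm) after derivatization with 2-acetylbenzofuran. Compounds at 3 nM–10 µM; control-normalized signal used for IC50.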

[2] = Pharmacokinetic evaluation after single iv and po administration to mice; format: in vivo, C57BL/6J male mice; conditions: for AUC(0-inf) / AUC(0-t) / C0 / half-life / clearance / Vd / Cmax / Tmax: male, C57BL/6J, mouse, plasma; for clearance: read-out: CLtot (converted); for Vd: read-out: Vss; for volume of distribution: result in words
Protocol: The concentrations of compound 35 and its metabolites in plasma were measured, and oral absorbability (bioavailability) was evaluated. Systemic clearance was calculated for the iv administration, and pharmacokinetic features were determined.
The concentrations of compound 76 and its metabolites in plasma were measured, and oral absorbability (bioavailability) was evaluated. Systemic clearance was calculated for the iv administration, and pharmacokinetic features were determined.
The concentration of compound 105 in plasma was measured, and oral absorbability (bioavailability: BA) was evaluated. A half-life, the volume of distribution in a stationary state, and systemic clearance, and the like were calculated for the iv administration, and pharmacokinetic features were determined.

[3] = tested on: primary cultured cells of mouse fetus-derived dorsal root ganglia (DRGs); test: Suppression of axonal degeneration after axotomy in DRG explant culture; format: cell-based; conditions: Mus musculus; minimum concentration at which axonal degeneration was suppressed (DI 0.3 or less); 24 hours after axotomy; read-out: Evaluation on protection against degeneration
Summary of the method: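 Embryonic ICR mouse DRG explants were cultured 7–8 days in nicotinamide-free neuronal medium with NGF, then axotomized by removing the cell bodies. Compound (100 pM–10 µM final, 0.1% DMSO) was added within 30 min, and neurites were imaged 24 h later. The result is the lowest concentration giving degeneration index ≤0.3.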

[4] = 1 mg/kg, iv 1 mg/5 ml/kg single dose
[5] = 10 mg/kg, po 10 mg/10 ml/kg single dose

T1 sequence (P43490 whole entry, species assumed): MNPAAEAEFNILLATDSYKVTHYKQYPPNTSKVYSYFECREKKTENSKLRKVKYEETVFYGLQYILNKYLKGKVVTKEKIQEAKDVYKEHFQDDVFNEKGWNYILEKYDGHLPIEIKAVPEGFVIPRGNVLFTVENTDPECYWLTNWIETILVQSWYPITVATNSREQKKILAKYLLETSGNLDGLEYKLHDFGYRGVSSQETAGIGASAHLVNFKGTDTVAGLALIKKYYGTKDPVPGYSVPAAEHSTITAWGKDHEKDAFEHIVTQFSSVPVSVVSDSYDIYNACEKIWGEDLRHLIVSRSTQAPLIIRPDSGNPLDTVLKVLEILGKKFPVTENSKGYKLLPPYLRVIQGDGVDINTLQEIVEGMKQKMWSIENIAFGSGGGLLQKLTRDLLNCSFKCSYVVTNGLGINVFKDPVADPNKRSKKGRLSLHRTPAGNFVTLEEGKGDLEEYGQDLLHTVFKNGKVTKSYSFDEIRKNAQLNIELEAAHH

Evaluation on NAMPT inhibitory [1] | AUC(0-inf) [2, 4] [ng·h/mL] | AUC(0-t) [2, 4] [ng·h/mL] | C0 [2, 4] [ng/mL] | half-life [2, 4] [h] | clearance [2, 4] [mL/min/kg] | Vd [2, 4] [L/kg] | AUC(0-inf) [2, 5] [ng·h/mL] | AUC(0-t) [2, 5] [ng·h/mL] | Cmax [2, 5] [ng/mL] | Tmax [2, 5] [h] | half-life [2, 5] [h] | BA ([2]; po 10 mg/10 ml/kg vs iv 1 mg/5 ml/kg, oral absorbability (bioavailability)) [%] | SMILES | volume of distribution [2] | minimal effective concentration [3] [µM]
○ | 234 | 228 | 1600 | 1.9 | 71.4 | 1.57 | 297 | 293 | 501 | 0.25 | 1.89 |  | O=C(NCCCOCCOCCCNC(=O)c1cccnc1)c1cccnc1 [compound 35] | large as compared with the amount of intercellular fluid | ≤ 0.01
○ | 1160 | 1160 | 1940 | 1.14 | 14.6 | 0.89 | 14200 | 14100 | 9850 | 0.25 | 3.21 | 124 | CC(C)(C)C(=O)Nc1ccc(CNC(=O)c2cccnc2)cn1 [compound 76] | large | ≤ 0.01
○ | 408 | 391 | 1050 | 2.81 | 40.9 | 3.14 | 2420 | 2410 | 2520 | 0.25 | 4.13 |  | O=C(NCc1ccc(NC(=O)c2ccccc2)nc1)c1cccnc1 [compound 105] | large as compared with the amount of intercellular fluid | ≤ 0.01
